According to PubChem BioAssay AID1902 (Broad Institute, 2009):
pEC50: −log10 of the molar value. Active and inactive are the calls of the source.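 The calls were made as follows: active = EC50 no more than a set limit of log units above the highest dose; inactive = the rest.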

Molecular target: S. pyogenes SKKanGAS, kanamycin survival, BacTiterGlo, 6 h
Test: SKKanGAS survival reduction under kanamycin, dose response, streptokinase promoter inhibitor project, SKKanGAS strain, luminescence, dose confirmation (AID 1902);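 also: lower survival reflects blocked streptokinase promoter driving kanamycin resistance gene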

In the case of `Cc1cccc(C)c1NC(=O)CN(C)CC(=O)Nc1sc2c(c1C(N)=O)CCC2`, the EC50 was > 15 µM (inactive).

With `Cc1cc(C)c(OCC(=O)Nc2nc(-c3ccccn3)cs2)c(C)c1` the pEC50 was 5.85.

For `O=C(CSc1ccc(-c2ccc(Cl)cc2)nn1)NC1CCCC1`, the EC50 was > 15 µM (inactive).

`O=C(N/N=C/c1c[nH]c2ccccc12)c1cc(-c2ccc(-c3ccccc3)cc2)n[nH]1` was tested, and the pEC50 was 5.54.

`CCC(C)(C)c1ccc(OCCCC[n+]2cccc(C)c2)c(C(C)(C)CC)c1` was tested, and the pEC50 was 5.11.

Molecule `Fc1ccc(CSc2ncnc3sc4c(c23)CCCC4)cc1` has a pEC50 of 5.40.

Molecule `CCCCc1ccc(NC(=S)NCCc2ccc(F)cc2)cc1` has a pEC50 of 5.24.

In the case of `Cc1ccc(C)c2sc(N3CCN(C(=O)c4ccc([N+](=O)[O-])o4)CC3)nc12`, the pEC50 was 5.25.

Work on `N=C(N)c1ccc(/C=C/c2ccc(C(=N)N)cc2O)cc1` yielded a pEC50 of 5.48.

For `Cc1nc2ccccc2c(=O)n1/N=C/c1cc(Br)cc(Br)c1O`, the pEC50 was 5.52.

In the case of `COc1ccc(C2CC(O)(c3ccccc3)Oc3c(C)ccc(C)c32)cc1` (stereo unspecified), the EC50 was > 15 µM (inactive).

In the case of `O=Nc1c(O)c2ccccc2c2ccccc12`, the pEC50 was 5.63.

Molecule `CCOc1ccc(C(=O)N/N=C(\c2ccccc2)c2ccccn2)cc1` has a pEC50 of 5.24.

In the case of `Cc1ccc(C)c(/C=C/C(=O)c2ccccc(=O)c2O)c1`, the pEC50 was 5.72.

`CC(C)C1O/C(=N/C(=O)Nc2ccc(Cl)c(Cl)c2)NC1=O` (stereo unspecified) gave a pEC50 of 5.60.

For `CC(C)C[C@H](NC(=O)c1nc[nH]c1C(=O)NC1CCN(C(=O)OC(C)(C)C)CC1)C(=O)OCc1ccccc1`, the pEC50 was 5.26.

Molecule `CC(=O)Nc1ccc(C#Cc2ccc(NC(C)=O)cc2)cc1` has a pEC50 of 5.93.

In the case of `COc1cccc(/C=N/Nc2cc(C)nc(-c3ccccc3O)n2)c1O`, the pEC50 was 5.71.

`Cc1onc(-c2ccccc2)c1C(=O)NNC(=S)NC(=O)c1ccc2c(c1)OCO2` showed a pEC50 of 6.23.

Work on `CCCCN(CC)S(=O)(=O)c1ccc(C(=O)Nc2nnc(-c3ccccc3Cl)o2)cc1` yielded a pEC50 of 6.65.

Molecule `CCn1c(O)c(/C=N/N=C/c2ccccc2)c2ccc(C3=NNC(=O)CC3)cc21` has a pEC50 of 5.37.

`CC(=O)Oc1ccc(/C=N/NS(=O)(=O)c2ccccc2)cc1` was tested, and the EC50 was > 15 µM (inactive).

In the case of `CC(C)n1nc(C(=O)Nc2nnc(SCc3c(Cl)cccc3Cl)s2)c2ccccc2c1=O`, the pEC50 was 5.78.

Molecule `O=C(Nc1ccc(Br)cc1C(=O)O)c1ccc2c(c1)C(=O)N(Cc1ccccc1)C2=O` has a pEC50 of 5.94.

For `CN1CCN(C(c2ccc(C(F)(F)F)cc2)c2ccc3cccnc3c2O)CC1` (stereo unspecified), the pEC50 was 5.52.

For `CCOC(=O)C1=C(C)NC2=C(C(=O)c3ccccc32)C1c1ccc([N+](=O)[O-])o1` (stereo unspecified), the pEC50 was 4.89.

`COc1cccc(-c2nn(-c3ccccc3)cc2C(=O)Nc2nccs2)c1` gave a pEC50 of 5.53.

For `O=C1c2ccccc2C2=Nc3ccccc3SC(c3ccccc3F)C12` (stereo unspecified), the pEC50 was 5.52.

`CC(C)Oc1ccc(C(=O)Nc2nc3ccccc3[nH]2)cc1` showed a pEC50 of 5.85.

`O=C1C(NS(=O)(=O)c2cccs2)=C(N2CCN(c3cccc(C(F)(F)F)c3)CC2)C(=O)c2ccccc21` gave a pEC50 of 5.05.

`Cc1ccc2ccc(C(Nc3ccccn3)c3ccccc3)c(O)c2n1` (stereo unspecified) gave a pEC50 of 6.15.

With `O=C(Cn1sc2ccccc2c1=O)NC12CC3CC(CC(C3)C1)C2` the pEC50 was 5.95.

`CNC[C@@H](CC1CCCCC1)NC[C@H](CC(C)C)NCCc1cccc(C(F)(F)F)c1` showed a pEC50 of 5.27.

`O=C(NC(=S)N1CCN(c2nc(-c3ccccc3)cs2)CC1)c1cncc(Br)c1` gave a pEC50 of 5.92.

Work on `COc1cc(/C=C/c2ccc3cccc(O)c3n2)c(Br)cc1O` yielded a pEC50 of 6.46.

In the case of `O=c1/c(=C\c2cccc(O)c2)sc2nc(-c3ccccc3)c(-c3ccccc3)n12`, the pEC50 was 5.12.

Work on `Cn1c2ccccc2c(=O)c2c(=O)n(-c3ccc(F)cc3)c(-c3cccs3)nc21` yielded a pEC50 of 5.32.

For `COCC1CCN(C(=O)CCc2nnc(C3(c4ccc(Cl)cc4)CCC3)o2)C1` (stereo unspecified), the EC50 was > 15 µM (inactive).

For `CC(C)COCc1ccc(O)c2ncccc12`, the pEC50 was 5.99.

`CCc1nnc(NC(=O)c2sc3nc4cc(C)ccc4cc3c2N)s1` was tested, and the pEC50 was 5.42.

With `O=[N+]([O-])c1cc(Br)c(O)c(/C=N/Nc2nnnn2-c2cccc3ccccc23)c1` the pEC50 was 5.26.

For `Cc1c(-c2cccc(Cl)c2)nc2ccccc2c1C(=O)OC/C(O)=C(\C#N)c1nc2ccccc2[nH]1`, the pEC50 was 5.72.

For `O=C(Oc1cccc2c(O)cccc12)c1ccccc1`, the EC50 was > 15 µM (inactive).

Molecule `Cc1sc2cc3c(c(C(=O)c4ccccc4)[n+]2c1C)-c1cccc2cccc-3c12` has a pEC50 of 5.18.

In the case of `C#CCN1C(=O)S/C(=C\c2ccc(-c3ccc(Cl)c(C(=O)O)c3)o2)C1=O`, the pEC50 was 5.55.

`C=CCn1c(O)c(N=NC(=S)Nc2ccccc2F)c2ccccc21` was tested, and the pEC50 was 6.24.

`Cc1cn(-c2cc(C(=O)Nc3ccc(C)c(NC(=O)C(=O)c4c[nH]c5ccccc45)c3)cc(C(F)(F)F)c2)cn1` was tested, and the pEC50 was 5.56.

`O=C(N/N=C/c1c(O)ccc2ccccc12)Nc1ccccc1` was tested, and the pEC50 was 5.11.

`O=C(c1ccc2c3n(nc2c1)-c1ccccc1CO3)N1CCCCC1` gave a pEC50 of 5.03.

Molecule `Cc1ccccc1CN1CCCN(Cc2ccc(Cl)cc2)S1(=O)=O` has a pEC50 of 5.39.

With `COc1cc2nc(CSc3nc(-c4ccc(F)cc4)cs3)[nH]c(=O)c2cc1OC` the EC50 was > 15 µM (inactive).

With `Cc1ccc2ccc(C(Nc3cccc(C(F)(F)F)c3)c3cccnc3)c(O)c2n1` (stereo unspecified) the pEC50 was 5.95.

Work on `Nc1nonc1-c1nc2ccccc2n1CC(=O)N/N=C\c1ccc(-c2ccc(Cl)cc2)o1` yielded a pEC50 of 5.97.

`c1ccc2c(Nc3nc4c(s3)CCCC4)cccc2c1` showed a pEC50 of 5.93.

In the case of `Cc1ccc(S(=O)(=O)CNC(=S)c2ccc3ccccc3c2)cc1`, the pEC50 was 5.38.

`O=C(NCc1nc(-c2ccc(C(F)(F)F)cc2)no1)Nc1cc(Cl)cc(Cl)c1` gave a pEC50 of 5.64.

`O=C1C(=O)c2ccccc2-c2ccccc21` gave a pEC50 of 5.90.

Molecule `COC(=O)c1c(C)[nH]c(C(=O)OCC(=O)N(CC(C)C)c2c(N)n(Cc3ccccc3)c(=O)[nH]c2=O)c1C` has a pEC50 of 5.03.

`Cc1ccc(/C=C/c2ccc(=O)n(Cc3ccccc3Cl)n2)cc1` gave a pEC50 of 5.22.

With `N=c1ccn2c(n1)O[C@H]1[C@H](O)[C@@H](CO)O[C@H]12` the pEC50 was 5.31.

Work on `CCCC(=O)NC(c1ccc(Cl)cc1)c1ccc2cccnc2c1O` (stereo unspecified) yielded a pEC50 of 5.14.

Work on `CCOC(=O)c1ccc(Oc2cn[nH]c2-c2ccc(OCC(=O)NN)cc2O)cc1` yielded a pEC50 of 6.45.

Work on `Cc1cc(C)c2[nH]c(O)c(N=Nc3ccc(C(=O)O)cc3)c2c1` yielded a pEC50 of 5.75.

In the case of `Cc1cccc2sc(NNC(=O)c3cc(=O)c4ccccc4o3)nc12`, the pEC50 was 6.38.

In the case of `C/C(N)=C(/C#N)C(=O)CSc1nc2scc(-c3ccc(F)cc3)c2c(=O)n1C`, the pEC50 was 5.68.

`CN1/C(=C\C(=O)Nc2ccc(Cl)cc2)C(C)(C)c2ccccc21` gave a pEC50 of 5.06.

`COc1ccc(C(=O)NNC(=S)NC(=O)c2ccc(F)cc2)cc1Br` gave a pEC50 of 6.90.

With `COc1cnc(-c2ccccn2)nc1Oc1ccccc1Cl` the pEC50 was 4.84.

Work on `Cc1ccc(-c2cc(C(=O)N3CCN(c4ccccc4O)CC3)c3ccccc3n2)cc1` yielded a pEC50 of 5.05.

In the case of `CCOC(=O)c1sc2nc(Cc3ccc(Cl)cc3)[nH]c(=S)c2c1C`, the pEC50 was 5.49.

`CCN(CC(=O)NC(C)(C)C)C(=O)COc1c(Cl)cc(Cl)c2ccc(C)nc12` showed a pEC50 of 6.30.

Work on `O=C(NNc1nc2ccc(Cl)cc2s1)c1cc(-c2cccs2)nc2ccccc12` yielded a pEC50 of 6.48.

In the case of `CCC1=NN2C(=N)/C(=C\c3cccn3-c3ccc(C)c(C)c3)C(=O)N=C2S1`, the pEC50 was 5.41.

Molecule `O=C(N/N=C/c1c(O)n(Cc2ccco2)c(=O)[nH]c1=O)c1ccccc1O` has a pEC50 of 5.55.

Molecule `CCCCCCCCCCCCN1[C@@H](CC(=O)O)c2cc(C(F)(F)F)ccc2S1(=O)=O` has a pEC50 of 5.61.

In the case of `CC1CCc2c(sc3nc(C4CC4)nc(N4CCN(C(=O)c5ccco5)CC4)c23)C1` (stereo unspecified), the pEC50 was 5.42.

Work on `Cc1ccc(C)c(/C=N/NC(=S)NCCc2ccccc2)c1` yielded a pEC50 of 5.39.

`Clc1ccc2c(N/N=C/c3cccc(Br)c3)ccnc2c1` was tested, and the pEC50 was 5.54.

Molecule `CCOC(=O)c1c(-c2ccc(C)o2)csc1NC(=O)COC(=O)c1ccc(NC(N)=O)cc1` has a pEC50 of 5.60.

`CCC[N+]1(CC#CC2(O)CCCCC2)CCOCC1` was tested, and the EC50 was > 15 µM (inactive).

In the case of `CC[C@H]1OC(=O)[C@H](C)[C@@H](O[C@H]2C[C@@](C)(OC)[C@@H](O)[C@H](C)O2)[C@H](C)[C@@H](O[C@@H]2O[C@H](C)C[C@H](N(C)C)[C@H]2O)[C@](C)(O)C[C@@H](C)CN(C)[C@H](C)[C@@H](O)[C@]1(C)O`, the pEC50 was greater than 7.22.

Work on `CCOC(=O)c1csc(N/N=C2\CCCc3ccccc32)n1` yielded a pEC50 of 4.96.

For `CCN(CC(=O)NCC1CCCO1)S(=O)(=O)c1ccc(Cl)cc1` (stereo unspecified), the EC50 was > 15 µM (inactive).

`CC1(C)N=C(N)NC(Nc2ccccc2)=N1` showed a pEC50 of 5.43.

Work on `COc1ccc2oc(C(=O)Nc3nc(-c4ccccn4)cs3)c(C)c2c1` yielded a pEC50 of 5.93.

For `Brc1ccc(-c2cn3c(n2)CCc2ccc4cccnc4c2-3)cc1`, the pEC50 was 5.75.

For `O=C(Nc1ncc(Cc2cccc(Cl)c2)s1)c1cccs1`, the pEC50 was 5.41.

Molecule `CC[n+]1c(/C=C/N(C)c2ccccc2)n(-c2ccccc2)c2ccc(-c3nc4ccccc4s3)cc21` has a pEC50 of 5.44.

`N=C1S/C(=C\c2ccco2)C(=O)N1c1nccs1` gave a pEC50 of 5.67.

For `Cc1cccc(OCC(=O)Nc2ccncc2)c1`, the EC50 was > 15 µM (inactive).

With `Cc1ccc(C(=O)N2CCCC(CCC(=O)NCc3ccccc3F)C2)cn1` (stereo unspecified) the EC50 was > 15 µM (inactive).

Molecule `COc1ccc(Br)cc1[C@H]1[C@@H]2C=CCC[C@@]2(C)C(=O)N1Cc1ccccc1` has a pEC50 of 5.31.

For `O=C(CN1C(=O)COc2ccc(S(=O)(=O)N3CCCCC3)cc21)NCc1ccc(F)cc1`, the EC50 was > 15 µM (inactive).

Molecule `O=c1c2cc(Br)ccc2nc(-c2cccc(Cl)c2)n1O` has a pEC50 of 5.96.

`COc1ccc2nc(-n3c(O)c(C4=c5ccccc5=NC4=O)[nH]c3=S)sc2c1` showed a pEC50 of 6.29.

For `COc1ccc(C2/C=C\CN(C(=O)c3ccccc3)CC(=O)N2Cc2ccc(F)cc2)cc1` (stereo unspecified), the EC50 was > 15 µM (inactive).

Molecule `CCOC(=O)C1=Nc2ccccc2C1=[N+]=[N-]` has a pEC50 of 6.61.

Molecule `CCCCCCCn1c(NC(=O)CC)nc2ccccc21` has a pEC50 of 6.47.

`CCCCN(CCCC)C(=S)N/N=C/c1c(C)[nH]n(-c2ccccc2)c1=O` was tested, and the pEC50 was 6.40.

Molecule `O=C(N/N=C/c1ccc(-c2ccc(Cl)c(C(=O)O)c2)o1)c1cc2c(ccc3ccccc32)o1` has a pEC50 of 5.39.

In the case of `O=C(CSc1nnc(CNC(=O)c2ccc(F)cc2)o1)NCc1ccccc1`, the EC50 was > 15 µM (inactive).

`CC1(C)N=C(N)N=C(N)N1c1ccc(Oc2ccc(Cl)cc2)c(Cl)c1` gave a pEC50 greater than 7.22.

For `O=c1cc(N2CCCCC2)c(-c2ccccc2)nn1Cc1ccc(Cl)cc1Cl`, the pEC50 was 5.52.

`CCCCNC(=O)c1ccc(NC(C)=O)c(Cl)c1` was tested, and the EC50 was > 15 µM (inactive).

`CCCC(=O)NCCc1ccc(F)cc1` was tested, and the EC50 was > 15 µM (inactive).

Work on `Cc1cccc(C(=O)NC(C(=O)Nc2nc(-c3ccccn3)cs2)C(C)C)c1` (stereo unspecified) yielded a pEC50 of 5.26.
